Test results taken from patent US20150080465A1 (priority 2013, published 2015).

How the values were obtained:
[1] = system: patients with type 2 diabetes and overt nephropathy; conditions: in vivo; cited from earlier work
[2] = monkeys, equivalent dosages orally in gelatin capsules; cited from earlier work
[3] = system: monocrotaline (MCT)-induced pulmonary arterial hypertension; conditions: rat, in vivo

## COc1ccccc1Oc1c(NS(=O)(=O)c2ccc(C)cn2)nc(-c2ccncc2)nc1OC [Avosentan]
[1]
  Fluid overload-related adverse events, serious and non-serious: increased only within the first month of treatment

## COC(=O)C12CCC(C)(C)CC1C1C(=O)C=C3C4(C)C=C(C#N)C(=O)C(C)(C)C4CCC3(C)C1(C)CC2 (stereo not drawn) [Form B]
[2]
  Bioavailability: higher than that of Form A

## CCCc1nn(C)c2c(=O)[nH]c(-c3cc(S(=O)(=O)N4CCN(C)CC4)ccc3OCC)nc12 [sildenafil]
[3]
  Pulmonary edema: completely abrogated
